Results reported in US6355799B1, “Substituted benzene compounds, process for their preparation, and herbicidal and defoliant compositions containing them” (ISK Americas Incorporated, priority 1997, dated 2002).

What was measured:
Assay type in all cases: in vivo
[1] = test system: upland rice (Oryza sp., var. Tebonnet, RICE); test: Pre-emerge test, crop safety; details: pre-emerge, rated 14 days after application, 0 = no damage, 100 = complete death
Summary of the method: (§1)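 Compounds in acetone were track-sprayed at 187 l/ha, 15–1000 g ai/ha, onto sandy loam pots. Pre-emerge seeds were sown one day before spraying, with surface watering afterwards. Post-emerge plants were at the 2–3 leaf stage and sprayed with 0.25% v/v non-ionic surfactant. Injury was rated 0–100 at 14 days.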

[2] = test system: field corn (Zea mays L., var. Dekalb 535, CORN); test: Pre-emerge test, crop safety; details: pre-emerge, rated 14 days after application, 0 = no damage, 100 = complete death
Summary of the method: as §1

[3] = test system: upland rice (Oryza sp., var. Tebonnet, RICE); test: Post-emerge test, crop safety; details: phytotoxicity rating 0-100 (0 no damage, 100 complete death), 14 days after application
Summary of the method: (§2)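 Each test used a mechanized track sprayer delivering 187 l/ha of acetone solution at 15–1000 g ai/ha. Post-emerge foliage at 2–3 leaves was treated with added 0.25% v/v non-ionic surfactant and bottom-watered only. Injury was assessed on day 14, where 100 means total kill.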

[4] = test system: field corn (Zea mays L., var. Dekalb 535, CORN); test: Post-emerge test, crop safety; details: phytotoxicity rating 0-100 (0 no damage, 100 complete death), 14 days after application
Summary of the method: as §2

[5] = test system: green foxtail (Setaria viridis, SETVI); test: Pre-emerge test, greenhouse herbicide activity screening; details: pre-emerge, rated 14 days after application, 0 = no damage, 100 = complete death
Summary of the method: (§3)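 Plants grown in 10 cm pots of sandy loam mix received acetone-dissolved compounds through a moving flat-fan nozzle. Doses ranged from 15 to 1000 g ai/ha. Pre-emerge pots were seeded one day earlier, post-emerge pots 8–21 days earlier. Fourteen days on, each pot was graded 0–100 for damage.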

[6] = test system: lambsquarters (Chenopodium album, CHEAL); test: as above; details: pre-emerge, rated 14 days after application, 0 = no damage, 100 = complete death
Summary of the method: as §3

[7] = test system: velvetleaf (Abutilon theophrasti, ABUTH); test: as above; details: pre-emerge, rated 14 days after application, 0 = no damage, 100 = complete death
Summary of the method: as §3

[8] = test system: johnsongrass (Sorghum halepense, SORHA); test: as above; details: pre-emerge, rated 14 days after application, 0 = no damage, 100 = complete death
Summary of the method: as §3

[9] = test system: large crabgrass (Digitaria sanguinalis, DIGSA); test: as above; details: pre-emerge, rated 14 days after application, 0 = no damage, 100 = complete death
Summary of the method: as §3

[10] = test system: sicklepod (Cassia obtusifolia, CASOB); test: as above; details: pre-emerge, rated 14 days after application, 0 = no damage, 100 = complete death
Summary of the method: as §3

[11] = test system: ivyleaf morningglory (Ipomoea hederacea, IPOHE); test: as above; details: pre-emerge, rated 14 days after application, 0 = no damage, 100 = complete death
Summary of the method: as §3

[12] = test system: barnyardgrass (Echinochloa crus-galli, ECHCG); test: as above; details: pre-emerge, rated 14 days after application, 0 = no damage, 100 = complete death
Summary of the method: as §3

[13] = test system: green foxtail (Setaria viridis, SETVI); test: Post-emerge test, greenhouse herbicide activity screening; details: phytotoxicity rating 0-100 (0 no damage, 100 complete death), 14 days after application
Summary of the method: (§4)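 Compounds in acetone were track-sprayed at 15–1000 g ai/ha: pre-emergence onto soil sown the previous day, then top-watered to incorporate and later bottom-watered; post-emergence onto 2–3 leaf plants with 0.25% v/v surfactant, bottom-watered only. Ratings on a 0–100 phytotoxicity scale were taken at day 14.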

[14] = test system: lambsquarters (Chenopodium album, CHEAL); test: as above; details: phytotoxicity rating 0-100 (0 no damage, 100 complete death), 14 days after application
Summary of the method: as §4

[15] = test system: velvetleaf (Abutilon theophrasti, ABUTH); test: as above; details: phytotoxicity rating 0-100 (0 no damage, 100 complete death), 14 days after application
Summary of the method: as §4

[16] = test system: johnsongrass (Sorghum halepense, SORHA); test: as above; details: phytotoxicity rating 0-100 (0 no damage, 100 complete death), 14 days after application
Summary of the method: as §4

[17] = test system: large crabgrass (Digitaria sanguinalis, DIGSA); test: as above; details: phytotoxicity rating 0-100 (0 no damage, 100 complete death), 14 days after application
Summary of the method: as §4

[18] = test system: sicklepod (Cassia obtusifolia, CASOB); test: as above; details: phytotoxicity rating 0-100 (0 no damage, 100 complete death), 14 days after application
Summary of the method: as §4

[19] = test system: ivyleaf morningglory (Ipomoea hederacea, IPOHE); test: as above; details: phytotoxicity rating 0-100 (0 no damage, 100 complete death), 14 days after application
Summary of the method: as §4

[20] = test system: barnyardgrass (Echinochloa crus-galli, ECHCG); test: as above; details: phytotoxicity rating 0-100 (0 no damage, 100 complete death), 14 days after application
Summary of the method: as §4

[21] = test system: redroot pigweed (Amaranthus retroflexus, AMARE); test: as above; details: phytotoxicity rating 0-100 (0 no damage, 100 complete death), 14 days after application
Summary of the method: as §4

[22] = test system: redroot pigweed (Amaranthus retroflexus, AMARE); test: Pre-emerge test, greenhouse herbicide activity screening; details: pre-emerge, rated 14 days after application, 0 = no damage, 100 = complete death
Summary of the method: as §3

SMILES: C#CCOc1c(Cl)cc(F)c(-n2c(=O)cc(C(F)(F)F)n(C)c2=O)c1N [Compound 1-19]
- Pre-emerge crop damage RICE (phytotoxicity rating, scale 0-100) ([1]; 63 g ai/ha): 80
- Pre-emerge crop damage RICE (phytotoxicity rating, scale 0-100) ([1]; 250 g ai/ha): 95
- Pre-emerge crop damage CORN (phytotoxicity rating, scale 0-100) ([2]; 63 g ai/ha): 50
- Pre-emerge crop damage CORN (phytotoxicity rating, scale 0-100) ([2]; 250 g ai/ha): 80
- Post-emerge Herbicidal Activity RICE (crop damage) ([3]; 63 g ai/ha): 25
- Post-emerge Herbicidal Activity RICE (crop damage) ([3]; 250 g ai/ha): 80
- Post-emerge Herbicidal Activity CORN (crop damage) ([4]; 63 g ai/ha): 5
- Post-emerge Herbicidal Activity CORN (crop damage) ([4]; 250 g ai/ha): 45
- Pre-emerge Herbicidal Activity SETVI (phytotoxicity rating, scale 0-100) ([5]; 63 g ai/ha): 100
- Pre-emerge Herbicidal Activity SETVI (phytotoxicity rating, scale 0-100) ([5]; 250 g ai/ha): 100
- Pre-emerge Herbicidal Activity CHEAL (phytotoxicity rating, scale 0-100) ([6]; 63 g ai/ha): 100
- Pre-emerge Herbicidal Activity CHEAL (phytotoxicity rating, scale 0-100) ([6]; 250 g ai/ha): 100
- Pre-emerge Herbicidal Activity ABUTH (phytotoxicity rating, scale 0-100) ([7]; 63 g ai/ha): 100
- Pre-emerge Herbicidal Activity ABUTH (phytotoxicity rating, scale 0-100) ([7]; 250 g ai/ha): 100
- Pre-emerge Herbicidal Activity SORHA (phytotoxicity rating, scale 0-100) ([8]; 63 g ai/ha): 90
- Pre-emerge Herbicidal Activity SORHA (phytotoxicity rating, scale 0-100) ([8]; 250 g ai/ha): 100
- Pre-emerge Herbicidal Activity DIGSA (phytotoxicity rating, scale 0-100) ([9]; 63 g ai/ha): 95
- Pre-emerge Herbicidal Activity DIGSA (phytotoxicity rating, scale 0-100) ([9]; 250 g ai/ha): 100
- Pre-emerge Herbicidal Activity CASOB (phytotoxicity rating, scale 0-100) ([10]; 63 g ai/ha): 90
- Pre-emerge Herbicidal Activity CASOB (phytotoxicity rating, scale 0-100) ([10]; 250 g ai/ha): 100
- Pre-emerge Herbicidal Activity IPOHE (phytotoxicity rating, scale 0-100) ([11]; 63 g ai/ha): 60
- Pre-emerge Herbicidal Activity IPOHE (phytotoxicity rating, scale 0-100) ([11]; 250 g ai/ha): 100
- Pre-emerge Herbicidal Activity ECHCG (phytotoxicity rating, scale 0-100) ([12]; 63 g ai/ha): 90
- Pre-emerge Herbicidal Activity ECHCG (phytotoxicity rating, scale 0-100) ([12]; 250 g ai/ha): 100
- Post-emerge Herbicidal Activity SETVI ([13]; 63 g ai/ha): 20
- Post-emerge Herbicidal Activity SETVI ([13]; 250 g ai/ha): 95
- Post-emerge Herbicidal Activity CHEAL ([14]; 63 g ai/ha): 30
- Post-emerge Herbicidal Activity CHEAL ([14]; 250 g ai/ha): 90
- Post-emerge Herbicidal Activity ABUTH ([15]; 63 g ai/ha): 100
- Post-emerge Herbicidal Activity ABUTH ([15]; 250 g ai/ha): 100
- Post-emerge Herbicidal Activity SORHA ([16]; 63 g ai/ha): 0
- Post-emerge Herbicidal Activity SORHA ([16]; 250 g ai/ha): 70
- Post-emerge Herbicidal Activity DIGSA ([17]; 63 g ai/ha): 0
- Post-emerge Herbicidal Activity DIGSA ([17]; 250 g ai/ha): 10
- Post-emerge Herbicidal Activity CASOB ([18]; 63 g ai/ha): 10
- Post-emerge Herbicidal Activity CASOB ([18]; 250 g ai/ha): 30
- Post-emerge Herbicidal Activity IPOHE ([19]; 63 g ai/ha): 30
- Post-emerge Herbicidal Activity IPOHE ([19]; 250 g ai/ha): 95
- Post-emerge Herbicidal Activity ECHCG ([20]; 63 g ai/ha): 0
- Post-emerge Herbicidal Activity ECHCG ([20]; 250 g ai/ha): 80
- Post-emerge Herbicidal Activity AMARE ([21]; 63 g ai/ha): 30
- Post-emerge Herbicidal Activity AMARE ([21]; 250 g ai/ha): 70
- Pre-emerge Herbicidal Activity AMARE (phytotoxicity rating, scale 0-100) ([22]; 63 g ai/ha): 95
- Pre-emerge Herbicidal Activity AMARE (phytotoxicity rating, scale 0-100) ([22]; 250 g ai/ha): 100
